Measurements published in publication PMC4598770, “Galectin Binding to Neo-Glycoproteins: LacDiNAc Conjugated BSA as Ligand for Human Galectin-3” (Biomolecules, 2015).

Target: T1, human Gal-3 (Homo sapiens, UniProt P17931)
T1 construct: made in house; host or cells: E. coli Rosetta (DE3) pLysS
Experiment: Competitive inhibition of Gal-3 binding to immobilized ASF
Conditions: for IC50: 5 µM galectin-3 binding to immobilized ASF; for Relative potency: related to the corresponding tetrasaccharide (4 or 5); for Relative potency per glycan: related to the corresponding tetrasaccharide and to one binding site
Experimental: Neo-glycoproteins were used as inhibitors of Gal-3 to ASF binding in competitive inhibition assays performed as described. The standard glycoprotein ASF (Sigma-Aldrich) was immobilized in microtiter plates as described above for neo-glycoproteins. After blocking, 5 µM Gal-3 and varying concentration of 11j, 11k, 11g and 12j, 12k, 12g were simultaneously incubated for 1 h followed by detection of bound Gal-3 as described above. Measured data were fitted and IC50 values calculated using Sigma Plot software (Systat software GmbH).

T1 sequence (P17931 whole entry): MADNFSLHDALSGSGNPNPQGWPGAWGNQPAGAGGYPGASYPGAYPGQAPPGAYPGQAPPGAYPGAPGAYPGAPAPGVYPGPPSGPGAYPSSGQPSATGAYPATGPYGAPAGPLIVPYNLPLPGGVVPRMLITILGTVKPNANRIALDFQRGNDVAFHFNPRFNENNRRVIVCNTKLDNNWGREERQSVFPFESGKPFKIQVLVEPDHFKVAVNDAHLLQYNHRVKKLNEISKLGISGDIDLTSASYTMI

Higher inhibition of Gal-3 binding compared to 4 (5 µM galectin-3, ASF, compared with LacNAc-LacNAc (4)) | IC50 | Relative potency (5 µM galectin-3, ASF) | Relative potency per glycan (5 µM galectin-3, ASF) | SMILES
1.5 fold | 7.23 ± 0.87 µM | 1.0 ± 0.12 | 1.0 ± 0.12 | CC(=O)N[C@@H]1[C@@H](O)[C@H](O[C@@H]2O[C@H](CO)[C@H](O)[C@H](O[C@@H]3O[C@H](CO)[C@@H](O[C@@H]4O[C@H](CO)[C@H](O)[C@H](O)[C@H]4NC(C)=O)[C@H](O)[C@H]3NC(C)=O)[C@H]2O)[C@@H](CO)O[C@H]1NC(=S)NCCNC(=O)OC(C)(C)C [Compound 5, GalNAcβ1,4GlcNAcβ1,3Galβ1,4GlcNAcβ1-linker-NH2-tBoc]
– | 13 ± 3.43 µM | 1.0 ± 0.26 | 1.0 ± 0.26 | CC(=O)N[C@@H]1[C@@H](O)[C@H](O[C@@H]2O[C@H](CO)[C@H](O)[C@H](O[C@@H]3O[C@H](CO)[C@@H](O[C@@H]4O[C@H](CO)[C@H](O)[C@H](O)[C@H]4O)[C@H](O)[C@H]3NC(C)=O)[C@H]2O)[C@@H](CO)O[C@H]1NC(=S)NCCNC(=O)OC(C)(C)C [Compound 4, Galβ1, 4GlcNAcβ1, 3Galβ1, 4GlcNAcβ1-linker-NH2-tBoc]
